Measurements from patent US20020172974A1, “Method of screening for antimicrobial compounds” (priority 1997, published 2002).

Tests used:
S. aureus RN4220 [pKF1] = test: dual culture bioluminescence assay, reading after octanal addition minus initial reading; assay type: cell-based; settings: E. coli/S. aureus co-culture, 5 hours at 37° C., RLU after octanal minus initial reading, FIG. 3
Method: S. aureus RN4220 [pKF1] has a plasmid that contains only luxAB genes so bioluminescence is dependent on the addition of aldehyde substrate. Chloramphenicol resistance is used as a selective marker for plasmid maintenance.
(§1) S. aureus RN4220 [PKF1] was grown overnight at 37° C. in Brain Heart Infusion (BHI) broth containing 10 ug/ml chloramphenicol to give approximately 1×10^9 CFU/ml. The overnight cultures were diluted to give 1×10^6 CFU/ml for E. coli and 1×10^7 CFU/ml for S. aureus and 25 μl of each organism was added to each well.
(§2) Test compounds were serially diluted in BHI and 50 μl was added to each well of a 96 well microtitre plate.
(§3) The plate was incubated for 5 hours at 37° C. and bioluminescence from compound treated cells was compared with non-treated cells using a luminometer (Wallac LB96B) to give bioluminescence output for E. coli (no substrate addition).
To monitor the effect of the antibiotics on S. aureus bioluminescence 50 μl of 0.01% (v/v) octanal substrate was added to each well and bioluminescence was measured immediately after substrate addition to each individual well (Total RLU's for both E. coli and S. aureus). To obtained RLU's for S. aureus the initial RLU reading was subtracted from the reading taken immediately following substrate addition.

E. coli JM109 [pSB311] = test: dual culture bioluminescence assay, reading before octanal substrate addition; assay type: cell-based; settings: E. coli/S. aureus co-culture, 5 hours at 37° C., FIG. 1
Method: E. coli JM109 [pSB311] has a plasmid that contains the entire lux gene cassette (luxCDABE) from Photorhabdus luminescens. In this organism bioluminescence initiation is independent on the addition of aldehyde substrate.
E. coli JM109 was grown overnight at 37° C. in Brain Heart Infusion (BHI) broth to give approximately 1×10^9 CFU/ml.
as §1, §2, §3

SMILES | activity against S. aureus (in words) (S. aureus RN4220 [pKF1]) | potency against E. coli (comparison in words) (E. coli JM109 [pSB311]; compared with mupirocin) | concentrations required to inhibit bioluminescence (E. coli JM109 [pSB311]; no substrate addition)
CC1(C)S[C@@H]2[C@H](NC(=O)[C@H](N)c3ccc(O)cc3)C(=O)N2[C@H]1C(=O)O [Amoxicillin] | potent activity | more potent | –
C/C(=C\C(=O)OCCCCCCCCC(=O)O)C[C@@H]1OC[C@H](C[C@@H]2O[C@H]2[C@@H](C)[C@H](C)O)[C@@H](O)[C@H]1O [mupirocin] | potent activity | – | greater than 64 μl/ml
